Assay results published in patent publication US7297506B2, “Assay for nucleotide triphosphate using a modified nucleoside diphosphate kinase comprising a fluorescent label” (Medical Research Council, priority 1999, dated 2007).
Read-outs that look alike come from different tables or passages of the source.

Assays:
[1] = in ethanol, known value; cited from earlier work
[2] = Fluorescence quantum yield determination; assay type: physicochemical; details: in buffer
Procedure: There is a shift of 6 nm in the absorbance maxima of the fluorophore between IDCC-NDPK and IDCC-NDPK˜P, but only 2 nm in the emission maxima. The fluorescence quantum yields for the two forms of the labelled enzyme were determined using as reference the known value of 0.83 for Coumarin 314 in ethanol.

[3] = test system: human rho protein; experiment: Nucleotide exchange and GTP hydrolysis of rho measured with IDCC-NDPK˜P fluorescence; assay type: biochemical; details: 2 μM Rho.GDP, 10 μM GTP, 30° C., pH 7.6
Procedure: The rate of nucleotide exchange from a small G protein, rho (which also has GTPase activity), was determined in solution. The rate of hydrolysis was also obtained indirectly.
Human rho protein was prepared in a form containing tightly-bound GDP. In the presence of excess added GTP, nucleotide exchange occurs such that GDP is released into free solution where it can be measured according to the invention. Once GTP is bound to rho, its hydrolysis is slowly catalysed by the protein at a steady-state rate. This creates more GDP, which is measured once it is released.
Fluorescence emission was recorded for a 200 μl solution containing 20 mM Tris/HCl, pH 7.6, 1 mM MgCl2, 100 mM (NH4)2SO4, 10 μM GTP, and 2 μM IDCC-NDPK˜P. The reaction was started at t=0 by adding 2 μM Rho.GDP. Excitation was at 440 nm with the emission monochromator set to 475 nm. The temperature was 30° C. The data were normalised using the fluorescence change for 1 μM GDP obtained from a titration of IDCC-NDPK˜P with different GTP/GDP ratios. […] The exponential “burst” represents the exchange of GDP bound to rho for GTP. The linear phase represents steady state: exchange of further GTP onto rho is limited by hydrolysis to GDP.

CCOC(=O)c1cc2cc3c4c(c2oc1=O)CCCN4CCC3 [Coumarin 314]
fluorescence quantum yield [1]: 0.83
fluorescence quantum yield [2]: 0.52

Rho.GDP: human rho protein, a small G protein with GTPase activity, prepared with tightly-bound GDP
rate constant of exponential phase (exchange of bound GDP for GTP) [3]: 0.196 min⁻¹
slope of linear phase (steady state GTP hydrolysis) [3]: 41.2 nM GDP min^−1
